# PubChem BioAssay (NCI)
#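 1) Cells in 96-well plates. 2) Compound, 48 h, 5 concentrations. 3) Linear interpolation between surrounding doses. 4) Unreached endpoint = highest concentration. Definition used: TGI = concentration required for complete inhibition of growth.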 Where a SMILES comes first, the peptide text is derived from it. The star is where a group is joined. Cbz = O=C(OCc1ccccc1)*; Boc = CC(C)(C)OC(=O)*; OSu = O=C1CCC(=O)N1O*; Bn = c1ccc(C*)cc1
# Legend:
# Assay in all cases: growth of human tumour cells (NCI), 48 h
# DU-145 prostate = system: DU-145 prostate
# MDA-MB-435 = system: MDA-MB-435
# NCI/ADR-RES ovarian = system: NCI/ADR-RES ovarian
# MCF7 breast = system: MCF7 breast
# MDA-MB-231 breast = system: MDA-MB-231 breast
# SW-620 colon = system: SW-620 colon
# EKVX NSCLC = system: EKVX NSCLC
# CCRF-CEM leukemia = system: CCRF-CEM leukemia
# OVCAR-4 ovarian = system: OVCAR-4 ovarian
# 786-0 renal = system: 786-0 renal
# SK-MEL-28 melanoma = system: SK-MEL-28 melanoma
# A498 renal = system: A498 renal
# SF-268 CNS = system: SF-268 CNS
# MDA-N = system: MDA-N
Structure (SMILES),TGI (DU-145 prostate),TGI (MDA-MB-435),TGI (NCI/ADR-RES ovarian),TGI (MCF7 breast),TGI (MDA-MB-231 breast),TGI (SW-620 colon),TGI (EKVX NSCLC),TGI (CCRF-CEM leukemia),TGI (OVCAR-4 ovarian),TGI (786-0 renal),TGI (SK-MEL-28 melanoma),TGI (A498 renal),TGI (SF-268 CNS),TGI (MDA-N)
Nc1cc(N2CCCC2)nc(=O)n1-c1ccccc1,> 100 µM,> 100 µM,> 100 µM,> 100 µM,> 100 µM,> 100 µM,> 100 µM,> 100 µM,> 100 µM,> 100 µM,> 100 µM,,,
CN(NC(=O)c1cccs1)C1=NCCCCN1,,> 100 µM,> 100 µM,> 100 µM,> 100 µM,> 100 µM,> 100 µM,> 100 µM,> 100 µM,> 100 µM,> 100 µM,> 100 µM,> 100 µM,> 100 µM
C[n+]1c(-c2ccc(/C=N/NC(=O)C(=O)N/N=C/c3ccc(-c4cn5ccsc5[n+]4C)cc3)cc2)cn2ccsc21,,> 100 µM,> 100 µM,> 100 µM,> 100 µM,> 100 µM,> 100 µM,> 100 µM,> 100 µM,> 100 µM,> 100 µM,,> 100 µM,> 100 µM
O=C(Nc1ccccc1)N(C1=NCC(CI)S1)c1ccc(F)cc1F (configuration not stated),> 100 µM,> 100 µM,> 100 µM,> 100 µM,78.4 µM,> 100 µM,> 100 µM,48.1 µM,> 100 µM,> 100 µM,83.4 µM,,> 100 µM,> 100 µM
CO/N=C(\C(=O)N(C)n1cnnc1)c1csc(NC(c2ccccc2)(c2ccccc2)c2ccccc2)n1,> 10 µM,,> 10 µM,> 10 µM,,> 10 µM,> 10 µM,> 10 µM,> 10 µM,> 10 µM,> 10 µM,> 10 µM,> 10 µM,> 10 µM
CCOC(=O)C(C)NC(=O)C(C)NC(=O)C(C)NC(=O)C(C)NC(=O)C(C)NC(=O)OCc1ccccc1 (configuration not stated),> 100 µM,> 100 µM,> 100 µM,> 100 µM,> 100 µM,> 100 µM,> 100 µM,> 100 µM,> 100 µM,> 100 µM,> 100 µM,,> 100 µM,> 100 µM
CC(C)(C)OC(=O)NC(Cc1ccc(OCc2ccccc2)cc1)C(=O)NC(CCCCNC(=O)OCc1ccccc1)C(=O)ON1C(=O)CCC1=O (configuration not stated) (Boc-Tyr(Bn)-Lys(Cbz)-OSu; configuration not given here),,,,44.3 µM,81.1 µM,41.1 µM,> 100 µM,,,35.7 µM,30.8 µM,> 100 µM,,29.9 µM
CCCCCCCCCCCCCCCCOCC(Cl)COP(=O)(O)OP(=O)(O)OCC1OC(n2cc(C)c(=O)[nH]c2=O)CC1O (configuration not stated),,> 100 µM,> 100 µM,> 100 µM,> 100 µM,> 100 µM,> 100 µM,> 100 µM,> 100 µM,> 100 µM,> 100 µM,> 100 µM,> 100 µM,> 100 µM
O=C(CSc1nc2[nH]ncc2c(=O)[nH]1)c1ccc(Cl)cc1,,> 100 µM,> 100 µM,> 100 µM,> 100 µM,> 100 µM,> 100 µM,> 100 µM,> 100 µM,> 100 µM,> 100 µM,,> 100 µM,> 100 µM
